Results published in patent US20050260630A1, “Rapid methods for detecting methylation of a nucleic acid molecule” (Michigan State University, priority 2004, published 2005).

What was measured:
[1] = tested on: genomic DNA from liver cells (GC-rich regions, 5′CCGG 3′ sites); experiment: Arbitrarily primed PCR and capillary electrophoresis methylation analysis of liver DNA of phenobarbital-treated C57BL/6 mice (RsaI/HpaII digest); conditions: 0.05% (w/v) in drinking water for 2 weeks
[2] = tested on: GC-rich regions of liver genomic DNA; experiment: GC-rich region methylation following phenobarbital treatment of B6C3F1 mice (AP-PCR and capillary electrophoresis, RsaI/HpaII and RsaI/MspI digests); type: in vivo; conditions: B6C3F1 mouse liver
H4IIE rat hepatoma cells = experiment: Global DNA methylation by SssI methylase assay in treated H4IIE cells; conditions: 72 hour incubation
[3] = Systolic blood pressure of DOCA-treated uninephrectomized rats; type: in vivo, rat; conditions: male Sprague-Dawley rats, uninephrectomy, pellet 200 mg/kg, water with 1.0% NaCl and 0.2% KCl; at 28 days (control 112 mmHg)
Experimental: Hypertensive rats were created by subjecting male Sprague-Dawley rats, weighing […] uninephrectomy and implanting them with a deoxycorticosterone acetate (DOCA) pellet (200 mg/kg). […] Aortas were removed 28 days after implantation of the DOCA pellet.

[4] = HpaII digest, 0.05% (w/v) in drinking water, 2 weeks
[5] = MspI digest, 0.05% (w/v) in drinking water, 2 weeks
[6] = Total of HpaII and MspI digests, 0.05%
[7] = H4IIE cells treated with non-cytolethal concentrations
[8] = H4IIE cells treated with cytolethal concentrations

Structure (SMILES): CCC1(c2ccccc2)C(=O)NC(=O)NC1=O [phenobarbital]
- sites in murine liver DNA where treatment has affected methylation status ([1]; C57BL/6 mice): 10 sites
- Sites of Hypermethylation ([1]; liver DNA of male C57BL/6 mice, t-test α=0.05): 8 sites
- Sites of Hypermethylation [2, 4]: 10 sites
- Sites of Hypomethylation [2, 4]: 5 sites
- Sites of “New” Methylation [2, 4]: 11 sites
- TOTAL altered sites [2, 4]: 26 sites
- Sites of Hypermethylation [2, 5]: 8 sites
- Sites of Hypomethylation [2, 5]: 8 sites
- Sites of “New” Methylation [2, 5]: 11 sites
- TOTAL altered sites [2, 5]: 27 sites
- Sites of Hypermethylation [2, 6]: 18 sites
- Sites of Hypomethylation [2, 6]: 13 sites
- Sites of “New” Methylation [2, 6]: 22 sites
- TOTAL altered sites [2, 6]: 53 sites

Structure (SMILES): Nc1ncn([C@H]2C[C@H](O)[C@@H](CO)O2)c(=O)n1 [dAzaC, 5-aza-2′deoxycytidine]
- global DNA methylation status (H4IIE rat hepatoma cells; [7]): decrease in global DNA methylation status

Structure (SMILES): CC(=O)OCC(=O)[C@H]1CC[C@H]2[C@@H]3CCC4=CC(=O)CC[C@]4(C)[C@H]3CC[C@]12C [DOCA, deoxycorticosterone acetate]
- systolic blood pressure [3]: 180 mmHg

Structure (SMILES): O=c1[nH]cc(F)c(=O)[nH]1 [5-FU, 5-fluorouracil]
- global DNA methylation status (H4IIE rat hepatoma cells; [8]): decrease in global DNA methylation status

Structure (SMILES): CN[C@@H]1C[C@H]2O[C@@](C)([C@@H]1OC)n1c3ccccc3c3c4c(c5c6ccccc6n2c5c31)C(=O)NC4 [staurosporine, Staurosporine]
- global DNA methylation status (H4IIE rat hepatoma cells; [8]): decrease in global DNA methylation status
- global DNA methylation status (H4IIE rat hepatoma cells; [7]): decrease in global DNA methylation status
